Reference: paper PMC12040169 (PLOS Biology, 2025)

Test: in vitro
Conditions: human, hela cells, % viability

In order of falling viability at 28.5 h, 10 µM:
1. C[C@@H](c1ccccc1)n1c(=O)[nH]c2ncc(-c3ccco3)nc21 [CBK064168]  112%
2. C[C@H](c1ccccc1)n1c(=O)[nH]c2ncc(-c3ccc(C(N)=O)cc3)nc21 [CBK064377]  111%
3. COCCn1c(=O)[nH]c2ncc(-c3ccsc3)nc21 [CBK064156]  108%
4. CC(C)Cn1c(=O)[nH]c2ncc(-c3cccc4ccccc34)nc21 [CBK064194]  107%
5. COc1cc(Cn2c(=O)[nH]c3ncc(-c4ccco4)nc32)cc(OC)c1OC [CBK064461]  106%
6. Nc1ncc(-c2cccc(O)c2)nc1-c1ccc(CCC(=O)O)cc1 [CBK064135]  103%
7. COc1ccc(-c2cnc3[nH]c(=O)n(Cc4ccccc4)c3n2)cc1 [CBK064210]  103%
8. O=c1[nH]c2ncc(-c3cccc(Br)c3)nc2n1CCc1cccnc1 [CBK064457]  103%
9. C[C@H](c1ccccc1)n1c(=O)[nH]c2ncc(-c3ccc(N(C)C)cc3)nc21 [CBK064367]  102%
10. C[C@H](c1ccccc1)n1c(=O)[nH]c2ncc(-c3cccc4ccccc34)nc21 [CBK064241]  101%
11. CN1CCN(C(=O)c2cccc(-c3nc(-c4ccc(C#N)cc4)cnc3N)c2)CC1 [CBK064144]  100%
12. COc1ccccc1-c1cnc2[nH]c(=O)n(CC3CCOCC3)c2n1 [CBK064286]  100%
13. O=C(c1ccc(-c2cnc3[nH]c(=O)n(CCc4cccnc4)c3n2)cc1)N1CCOCC1 [CBK064334]  99.1%
14. COc1ccccc1-c1cnc2[nH]c(=O)n(C3CCCCC3)c2n1 [CBK064203]  98.7%
15. CC(=O)Nc1cccc(-c2cnc3[nH]c(=O)n([C@@H](C)c4ccccc4)c3n2)c1 [CBK064159]  98.2%
16. CC(=O)c1ccc(-c2cnc3[nH]c(=O)n([C@H](C)c4ccccc4)c3n2)s1 [CBK064375]  98.2%
17. C[C@H](c1ccccc1)n1c(=O)[nH]c2ncc(-c3ccco3)nc21 [CBK064415]  98.1%
18. COCCCn1c(=O)[nH]c2ncc(-c3cccc(NC(C)=O)c3)nc21 [CBK064433]  97.5%
19. CN(C)CCn1c(=O)[nH]c2ncc(-c3ccco3)nc21 [CBK064251]  97.1%
20. O=c1[nH]c2ncc(-c3ccsc3)nc2n1Cc1ccccc1 [CBK064227]  96.7%
21. C[C@H](c1ccccc1)n1c(=O)[nH]c2ncc(-c3cccc(-c4ccccc4)c3)nc21 [CBK064158]  96.5%
22. C[C@H](c1ccccc1)n1c(=O)[nH]c2ncc(-c3cccc(C(=O)NCCN(C)C)c3)nc21 [CBK064204]  96.5%
23. O=c1[nH]c2ncc(-c3cccc(-c4ccccc4)c3)nc2n1Cc1ccccc1 [CBK064252]  96.1%
24. O=c1[nH]c2ncc(-c3cccc4cccnc34)nc2n1C1CCCCC1 [CBK064215]  96%
25. CC(=O)Nc1cccc(-c2cnc3[nH]c(=O)n([C@H](C)c4ccccc4)c3n2)c1 [CBK064188]  95.9%
26. CCCC/C=C/c1cnc(N)c(N[C@H](C)c2ccccc2)n1 [CBK064148]  95.1%
27. O=c1[nH]c2ncc(-c3ccco3)nc2n1CCc1cccnc1 [CBK064494]  94.7%
28. O=c1[nH]c2ncc(-c3ccc(-c4ccccc4)cc3)nc2n1Cc1cccnc1 [CBK064282]  94%
29. O=c1[nH]c2ncc(-c3cccc(OC(F)(F)F)c3)nc2n1C1CCCCC1 [CBK064187]  93.6%
30. CN(C)CCn1c(=O)[nH]c2ncc(-c3ccoc3)nc21 [CBK064294]  92.6%
31. CC(C)Cn1c(=O)[nH]c2ncc(-c3ccco3)nc21 [CBK064353]  91.9%
32. Nc1ncc(-c2cccs2)nc1-c1ccc(C(=O)O)cc1 [CBK064133]  91.4%
33. C[C@H](c1ccccc1)n1c(=O)[nH]c2ncc(-c3cccc4ncccc34)nc21 [CBK064173]  89.6%
34. O=c1[nH]c2ncc(-c3cccc4ncccc34)nc2n1Cc1ccccc1 [CBK064245]  89.4%
35. C[C@@H](c1ccccc1)n1c(=O)[nH]c2ncc(-c3cccc(-c4ccccc4)c3)nc21 [CBK064192]  88.8%
36. Nc1ncc(-c2cccc(F)c2)nc1-c1ccc(C(=O)N2CCOCC2)cc1 [CBK064131]  88.4%
37. COc1ccc(C(C)C)cc1-c1cnc2[nH]c(=O)n([C@H](C)c3ccccc3)c2n1 [CBK064181]  87.3%
38. O=c1[nH]c2ncc(-c3ccsc3)nc2n1CC1CCOCC1 [CBK064293]  86.3%
39. CCCC/C=C/c1cnc2[nH]c(=O)n(Cc3cccs3)c2n1 [CBK064373]  83.6%
40. COCCCn1c(=O)[nH]c2ncc(-c3cc(C(C)C)ccc3OC)nc21 [CBK064351]  82.8%
41. C[C@H](c1ccccc1)n1c(=O)[nH]c2ncc(-c3cccc4cccnc34)nc21 [CBK064237]  44.4%
